{"source": "patent US7893289B2", "about": "“Adamantanamines and neramexane salts of thiomolybdic and thiotungstic acids” (SSV Therapeutics, Inc., priority 2007, dated 2011)", "key": {"NMDA receptor": {"test_system": "NMDA receptor", "test": "Blockage of NMDA-induced seizure activity and lethality in mice pretreated with the antagonist", "assay_type": "in vivo", "settings": "for mice survived following NMDA induced seizures: male CD-1 mice, groups of 5, sc 20 min before NMDA 200 mg/kg IP, 4 h observation, highest equivalent memantine dose (memantine hydrochloride 30 mg/kg sc); for protection in the NMDA-induced seizure/mortality test: sc, Example 4 at equivalent memantine dose, Examples 1 and 2 administered as suspensions", "text": "Briefly, the test measures blockage of seizure activity and lethality in mice produced by the administration of NMDA when pretreated with the antagonists. [see Leander, J. D., et al., Brain Res. 448, 115-120 (1988) and Parsons, C. G., et al., Neuropharmacol 34, 1239-1258; (1995)].\nTest protocol: Groups of 5 male CD-1 mice weighing 24±2 g were used. Male CD-1 (Crl.) mice were provided by BioLasco Taiwan (under Charles River Laboratories Technology License). Space allocations for animals were as follows: 29×18×13 cm for 5 mice. Mice were maintained in a controlled temperature (22° C.-24° C.) and humidity (60%-80%) environment with 12 h light/dark cycles for at least one week in MDS Pharma Services—Taiwan Laboratory prior to use. Free access to standard lab chow for mice [MF-18 (Oriental Yeast Co., Ltd., Japan)] and RO water was granted. [All aspects of this work including housing, experimentation and disposal of animals were performed in general accordance with the Guide for the Care and Use of Laboratory Animals (National Academy Press, Washington, D.C., 1996).]\nTest substance was administered by subcutaneous (sc) injection 20 min before challenge with NMDA 200 mg/kg by intraperitoneal injection (IP). The animals were placed individually in glass jars and observed over a period of 4 h for presence of clonic convulsions, tonic convulsions and mortality. The onset of clonic and tonic convulsions as well as death was recorded and incidence of clonic seizures, tonic seizures and death was reported. Inhibition of NMDA (200 mg/kg, IP)-induced tonic convulsions/mortality (mainly mortality) in more than 50 percent (>50%) of the 5 mice during the following 4 h indicates possible NMDA receptor antagonist activity. Memantine hydrochloride at 30 mg/kg sc was used as positive control.\nThe vehicle used for dissolution was 20% aqueous DMSO."}, "[1]": {"settings": "ambient conditions in air and humidity, after 50 days; cited from earlier work"}, "[2]": {"test": "Solubility in the dosing vehicle (20% aqueous DMSO)", "assay_type": "physicochemical"}}}
{"molecule": "CC12CC3CC(C)(C1)CC([NH3+])(C3)C2.CC12CC3CC(C)(C1)CC([NH3+])(C3)C2.[S]=[Mo](=[S])([S-])[S-]", "note": "[Example 3, Bis(1-ammonium-3,5-dimethyladamantane) tetrathiomolybdate]", "values": [{"measurement": "more effective than memantine at an equivalent dose", "setting": "NMDA receptor; NMDA-induced clonic seizures and mortality in mice, equivalent dose (30 mg)", "value": 40, "unit": "%"}, {"measurement": "mice survived following NMDA induced seizures", "setting": "NMDA receptor", "value": "4/5"}, {"measurement": "inhibition of NMDA-induced clonic seizures and mortality", "setting": "NMDA receptor; mice, sc pretreatment at three doses, NMDA 200 mg/kg IP", "value": "in a dose dependent manner"}, {"measurement": "time to seizures", "setting": "NMDA receptor; mice, highest equivalent memantine dose, compared with memantine", "value": "notably prolonged"}, {"measurement": "protection from tonic seizures", "setting": "NMDA receptor; mice, low, medium and high doses, without DMSO solvate, similar to the high dose of memantine", "value": "protected from tonic seizures"}]}
{"molecule": "CC1(C)CC(C)(C)CC(C)([NH3+])C1.CC1(C)CC(C)(C)CC(C)([NH3+])C1.[S]=[Mo](=[S])([S-])[S-]", "note": "[Example 4, Bis(1-ammonium-1,3,3,5,5-pentamethylcyclohexane)tetrathiomolybdate]", "values": [{"measurement": "protection in the NMDA-induced seizure/mortality test", "setting": "NMDA receptor; mice", "value": "complete protection"}]}
{"molecule": "[NH4+].[NH4+].[SH-].[SH-].[S]=[Mo]=[S]", "note": "[TM, diammonium tetrathiomolybdate]", "values": [{"measurement": "loss in activity", "setting": "[1]", "value": "~55", "unit": "%"}]}
{"molecule": "CC12CC3CC(C)(C1)CC(N)(C3)C2", "note": "[memantine, 1-amino-3,5-dimethyladamantane, reference compound]", "values": [{"measurement": "mice survived following NMDA induced seizures", "setting": "NMDA receptor", "value": "5/5"}]}
{"molecule": "Bis(1-methylammoniumadamantane) tetrathiomolybdate [Example 2]", "values": [{"measurement": "protection in the NMDA-induced seizure/mortality test", "setting": "NMDA receptor; mice", "value": "not protective"}, {"measurement": "solubility in the vehicle", "setting": "[2]", "value": "inadequate solubility"}]}
